Experimental data as given in patent US9328374B2, “Selective culture medium and method for detecting carbapenem-resistant bacteria in a test sample” (Institut National de la Sante et de la Recherche Medicale …, priority 2011, dated 2016).
Like-named read-outs stand apart in the source and are kept apart here.

Tested on: P. rettgeri
Assay: MIC of imipenem, ertapenem and meropenem
Type: cell-based, Providencia rettgeri
[1] = P. rettgeri RAP, OXA-181 + OXA-1
[2] = strain P. rettgeri RAP, OXA-181 + OXA-1
[3] = P. rettgeri RAP (OXA-181 + OXA-1)

Compound	MIC [1]	MIC (Providencia rettgeri, P. rettgeri RAP (OXA-181 + OXA-1), read-out: MIC)	MIC [2]	MIC [3]
C[C@@H](O)[C@H]1C(=O)N2C(C(=O)O)=C(S[C@@H]3CN[C@H](C(=O)Nc4cccc(C(=O)O)c4)C3)[C@H](C)[C@H]12 [ETP, ertapenem]	1 µg/mL	1 µg/mL	1 µg/mL	–
C[C@@H](O)[C@H]1C(=O)N2C(C(=O)O)=C(SCCN=CN)C[C@H]12 [IPM, imipenem]	8 µg/mL	–	8 µg/mL	8 µg/mL
C[C@@H](O)[C@H]1C(=O)N2C(C(=O)O)=C(S[C@@H]3CN[C@H](C(=O)N(C)C)C3)[C@H](C)[C@H]12 [MEM, meropenem]	2 µg/mL	–	2 µg/mL	2 µg/mL
